According to the supplement of paper PMC10307832:

How the values were obtained:
Test in all cases: relative viability (nuclei count vs DMSO), 5 days (fraction); higher = more cells survive
AT9283 + Foretinib = compound: O=C(Nc1c[nH]nc1-c1nc2ccc(CN3CCOCC3)cc2[nH]1)NC1CC1 [AT9283] + COc1cc2c(Oc3ccc(NC(=O)C4(C(=O)Nc5ccc(F)cc5)CC4)cc3F)ccnc2cc1OCCCN1CCOCC1 [Foretinib] (partner 0.25 µM)
In short: (§1)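 Cells from lung cancer lines were seeded into 1536-well plates and, one day later, dosed by pin tool. Treatments were either a single drug or a fixed dose of an anchor drug with five library-drug doses (not always all listed) in √10 steps. After 5 days, nuclei were stained in a one-step fixation (final 0.05% Triton X-100, 1% formaldehyde, 1 ug/ml Hoechst) and counted on 4× images, and relative viability is the treated-to-vehicle nuclei ratio, as the median of duplicate plates.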

Erlotinib + Crizotinib = compound: C#Cc1cccc(Nc2ncnc3cc(OCCOC)c(OCCOC)cc23)c1 [Erlotinib] + C[C@@H](Oc1cc(-c2cnn(C3CCNCC3)c2)cnc1N)c1c(Cl)ccc(F)c1Cl [Crizotinib] (partner 1 µM)
In short: as §1

Erlotinib + Decitabine = compound: C#Cc1cccc(Nc2ncnc3cc(OCCOC)c(OCCOC)cc23)c1 [Erlotinib] + Nc1ncn([C@H]2C[C@H](O)[C@@H](CO)O2)c(=O)n1 [Decitabine] (partner 2 µM)
In short: as §1

AT9283 + Trametinib = compound: O=C(Nc1c[nH]nc1-c1nc2ccc(CN3CCOCC3)cc2[nH]1)NC1CC1 [AT9283] + CC(=O)Nc1cccc(-n2c(=O)n(C3CC3)c(=O)c3c(Nc4ccc(I)cc4F)n(C)c(=O)c(C)c32)c1 [Trametinib] (partner 0.02 µM)
In short: as §1

Erlotinib + Alpelisib = compound: C#Cc1cccc(Nc2ncnc3cc(OCCOC)c(OCCOC)cc23)c1 [Erlotinib] + Cc1nc(NC(=O)N2CCC[C@H]2C(N)=O)sc1-c1ccnc(C(C)(C)C(F)(F)F)c1 [Alpelisib] (partner 2 µM)
In short: as §1

| Cell Line | relative viability (AT9283 + Foretinib; first compound 0.003 µM) | relative viability (AT9283 + Foretinib; first compound 0.03 µM) | relative viability (AT9283 + Foretinib; first compound 0.09487 µM) | relative viability (AT9283 + Foretinib; first compound 0.3 µM) | relative viability (Erlotinib + Crizotinib; first compound 0.02 µM) | relative viability (Erlotinib + Crizotinib; first compound 0.2 µM) | relative viability (Erlotinib + Crizotinib; first compound 0.6325 µM) | relative viability (Erlotinib + Crizotinib; first compound 2 µM) | relative viability (Erlotinib + Decitabine; first compound 0.02 µM) | relative viability (Erlotinib + Decitabine; first compound 0.2 µM) | relative viability (Erlotinib + Decitabine; first compound 0.6325 µM) | relative viability (Erlotinib + Decitabine; first compound 2 µM) | relative viability (AT9283 + Trametinib; first compound 0.003 µM) | relative viability (AT9283 + Trametinib; first compound 0.03 µM) | relative viability (AT9283 + Trametinib; first compound 0.09487 µM) | relative viability (AT9283 + Trametinib; first compound 0.3 µM) | relative viability (Erlotinib + Alpelisib; first compound 0.02 µM) | relative viability (Erlotinib + Alpelisib; first compound 0.2 µM) | relative viability (Erlotinib + Alpelisib; first compound 0.6325 µM) | relative viability (Erlotinib + Alpelisib; first compound 2 µM) |
| --- | --- | --- | --- | --- | --- | --- | --- | --- | --- | --- | --- | --- | --- | --- | --- | --- | --- | --- | --- | --- |
| HCC-366 | 0.962 | 0.881 | 0.0841 | 0.0697 | 0.49 | 0.524 | 0.736 | 0.502 | 0.353 | 0.324 | 0.335 | 0.264 | 0.349 | 0.256 | 0.173 | 0.0874 | 0.46 | 0.25 | 0.402 | 0.209 |
| NCI-H1437 | 1.33 | 0.974 | 0.533 | 0.323 | 1.01 | 1.02 | 1.12 | 0.883 | 0.575 | 0.57 | 0.598 | 0.514 | 0.547 | 0.568 | 0.302 | 0.14 | 0.924 | 0.965 | – | 0.854 |
| NCI-H661 | 1.01 | 0.472 | 0.384 | 0.364 | 1.16 | – | 1.04 | 0.97 | 0.566 | – | 0.551 | 0.384 | 0.571 | 0.441 | 0.423 | 0.323 | 0.545 | 0.556 | 0.782 | 0.426 |
| NCI-H1651 | 0.837 | 0.779 | 0.638 | 0.396 | 0.876 | 0.801 | 0.92 | 0.786 | 0.623 | 0.438 | 0.644 | 0.524 | 0.838 | 0.875 | 0.819 | 0.39 | 1.02 | 0.873 | 1.05 | 0.944 |
| NCI-H727 | 0.689 | 0.649 | 0.437 | 0.331 | 0.736 | 0.725 | 0.574 | 0.552 | 0.898 | 0.596 | 0.92 | 0.731 | 0.378 | 0.418 | 0.359 | 0.347 | 0.612 | 0.48 | 0.459 | 0.463 |
| HCC-78 | 0.5 | 0.485 | 0.331 | 0.305 | 0.266 | 0.254 | 0.271 | 0.217 | 0.728 | 0.743 | 0.705 | 0.584 | 0.794 | 0.745 | 0.353 | 0.222 | 0.353 | 0.337 | 0.305 | 0.186 |
| RERF-LC-KJ | 0.922 | 0.498 | 0.279 | 0.22 | 0.85 | 0.837 | 0.781 | 0.645 | 0.638 | 0.62 | 0.649 | 0.582 | 0.877 | 0.691 | 0.412 | 0.251 | 0.877 | 0.666 | 0.613 | 0.469 |
| NCI-H1944 | 0.821 | 0.373 | 0.267 | 0.254 | 0.964 | 0.701 | 0.844 | 0.626 | 0.43 | 0.382 | 0.37 | 0.372 | 0.408 | 0.307 | 0.196 | 0.206 | 0.708 | 0.562 | 0.595 | 0.504 |
| HOP-62 | 1.12 | 0.667 | 0.324 | 0.321 | 0.885 | 0.989 | 0.965 | 0.972 | 0.232 | 0.221 | 0.187 | 0.241 | 0.384 | 0.431 | 0.194 | 0.188 | – | 1.05 | 1.05 | 0.977 |
| NCI-H358 | 0.653 | 0.155 | 0.0898 | 0.0981 | 0.549 | 0.524 | 0.379 | 0.24 | 0.216 | 0.183 | 0.179 | 0.167 | 0.144 | 0.105 | 0.081 | 0.0743 | 0.885 | 0.693 | 0.474 | 0.358 |
| NCI-H1755 | 0.871 | 0.755 | 0.559 | 0.496 | 0.889 | 0.888 | 0.904 | – | 0.725 | 0.75 | 0.741 | 0.764 | 0.8 | 0.815 | 0.637 | 0.557 | 1.01 | 0.933 | 0.937 | 0.872 |
| NCI-H2126 | 1.2 | 1.18 | 0.652 | 0.447 | 1.04 | 0.892 | 0.776 | 0.662 | 0.569 | 0.537 | 0.437 | 0.493 | 0.573 | 0.566 | 0.38 | 0.293 | 0.781 | 0.644 | 0.537 | 0.379 |
| NCI-H520 | 0.95 | 0.326 | 0.337 | 0.295 | 0.683 | 0.9 | 0.987 | 0.68 | 0.593 | 0.504 | 0.519 | 0.564 | 0.719 | 0.276 | 0.291 | 0.149 | 0.932 | 0.934 | 1.17 | – |
| A-427 | 1.01 | 1.04 | 0.24 | 0.216 | 0.966 | 1.03 | 0.887 | 0.838 | 0.585 | 0.562 | 0.592 | 0.582 | 0.706 | 0.501 | 0.334 | 0.396 | 1 | 1.04 | 1.12 | 1.05 |
